From patent US11433057B2, “Method for improving or enhancing cognition” (VANDA PHARMACEUTICALS INC., priority 2016, dated 2022)

Assays:
Format in all cases: in vivo, human
[1] = test system: patients with findings consistent with mild AD or amnestic MCI; assay: CANTAB Paired Associates Learning (PAL), 4-week placebo-controlled study; settings: 15 mg daily oral, study day 1
Experimental: (§1) The following example illustrates the methods of the invention, in which a 4-week, parallel-group, randomized, double-blind, placebo-controlled, adaptive proof of concept study of AQW051 at up to three dose levels for the treatment of patients with findings consistent with mild Alzheimer's disease (AD) or Mild Cognitive Impairment (amnestic MCI) was conducted in two stages.
(§2) To assess AQW051 as a cognitive enhancer, as measured by selected tests [Paired Associates Learning (PAL), Spatial Working Memory (SWM), Rapid Visual Information Processing (RVP)] from the Cambridge Neuropsychological Test Automated Battery (CANTAB) computerized cognitive test battery, in patients with findings consistent with mild AD or amnestic MCI.
(§3) The investigational drug AQW51 was provided as either 0.5 mg, 5 mg, or 25 mg capsules. In stage I only 5 mg capsules were used. All groups received 15 mg of AQW051 daily for 4 weeks.
(§4) On Day 1, 8, 15, 22 and 28, the study drug was administered by study personnel and was taken orally with 240 ml of water after light breakfast. On all other study treatment days, patients self-administered the study medication in the morning after light breakfast.
(§5) The different CANTAB readouts were analyzed separately by rank analyses of covariance, including “treatment” and “stratum” (MCI, AD) as fixed effects and the corresponding baseline value as covariate. The comparison of interest was the contrast between active treatment and placebo; tests were performed to the one-sided 10% level without multiplicity-adjustment. Point and interval estimates were produced by the baseline-adjusted stratified Hodges-Lehmann method. In addition, sensitivity analyses were performed using standard analyses of covariance, to complement the aforementioned nonparametric methods. The items “errors at the 6 pattern stage” and “total trials adjusted” of the PAL task at day 28 played a key role at the interim analysis. At the end of stage 1, the conditional power of the study to reach an overall significant result in both these key endpoints at the final analysis was estimated by bootstrap methods. The different scores from the ADAS-Cog, QoL-AD, the DAD and the MMSE were analyzed using standard analyses of covariance. Safety and tolerability variables measures were analyzed by means of descriptive statistics.

[2] = test system: patients with findings consistent with mild AD or amnestic MCI; assay: CANTAB Choice Reaction Time (CRT), 4-week placebo-controlled study; settings: 15 mg daily oral, study day 28
Experimental: as §1
(§6) To explore effects of AQW051 on other cognitive functions not assessed by the primary measures (CANTAB tests Pattern Recognition Memory (PRM), Choice Reaction Time (CRT), Graded Naming Test-Revised (GNT).
as §3, §4, §5

[3] = test system: patients with findings consistent with mild AD or amnestic MCI; assay: Adverse events, safety analysis set, 4-week placebo-controlled study; settings: 15 mg daily oral, 4 weeks
Experimental: as §1
To explore the safety and tolerability of AQW051 in patients with findings consistent with mild AD or amnestic MCI.
as §3, §4, §5
Under one treatment, a subject with multiple occurrences of an adverse event is counted only once in the AE category. N=number of subject studied; n=number of subjects with at least 1 AE in the category. Only adverse events occurring at or after first drug intake are included.

[4] = test system: patients with findings consistent with mild AD or amnestic MCI; assay: CANTAB Rapid Visual Information Processing (RVP), 4-week placebo-controlled study; settings: 15 mg daily oral, study day 1
Experimental: as §1, §2
The investigational drug AQW51 was provided as either 0.5 mg, 5 mg, or 25 mg capsules. In stage I only 5 mg capsules were used. All groups received 15 mg of AQW051 daily for 4 weeks. […]
(§7) The different CANTAB readouts were analyzed separately by rank analyses of covariance, including “treatment” and “stratum” (MCI, AD) as fixed effects and the corresponding baseline value as covariate. […] The different scores from the ADAS-Cog, QoL-AD, the DAD and the MMSE were analyzed using standard analyses of covariance. Safety and tolerability variables measures were analyzed by means of descriptive statistics.

[5] = test system: patients with findings consistent with mild AD or amnestic MCI; assay: CANTAB Pattern Recognition Memory (PRM), 4-week placebo-controlled study; settings: 15 mg daily oral, study day 28, PD analysis set N=54
Experimental: as §1, §6, §3, §4, §5

[6] = test system: patients with findings consistent with mild AD or amnestic MCI; assay: CANTAB Spatial Working Memory (SWM), 4-week placebo-controlled study; settings: 15 mg daily oral, study day 28
Experimental: as §1, §2, §3, §4, §5

[7] = test system: patients with findings consistent with mild AD or amnestic MCI; assay: CANTAB Graded Naming Test-Revised (GNT), 4-week placebo-controlled study; settings: 15 mg daily oral; study day 28; PD analysis set N=54; p=0.8191
Experimental: as §1, §6, §3
On Day 1, 8, 15, 22 and 28, the study drug was administered by study personnel and was taken orally with 240 ml of water after light breakfast. […]
as §7

## Cc1ccc(-c2ccc(O[C@H]3CN4CCC3CC4)cn2)cc1 [AQW051, (R)-3-(6-p-tolyl-pyridin-3-yloxy)-1-aza-bicyclo[2.2.2]octane]
[1]; MCI patient only N=38, p=0.0239
  PAL of total errors (2 shapes adj), Difference AQW051 15 mg vs. Placebo: 0
[1]; MCI patient only N=38, p=0.0877
  PAL total trials (adj), Difference AQW051 15 mg vs. Placebo: −1.5
[1]; all patients N=54, p=0.0142
  PAL total errors (2 shapes adj), Difference AQW051 15 mg vs. Placebo: 0
[1]; all patients N=54, p=0.0840
  PAL total errors (6 shapes adj), Difference AQW051 15 mg vs. Placebo: −2
[1]; all patients N=54, p=0.0846
  PAL total trials (adj), Difference AQW051 15 mg vs. Placebo: −1
[2]; MCI patient only N=38, p=0.0918
  CRT Percent correct trials, Difference AQW051 15 mg vs. Placebo: 0.5
[2]; MCI patient only N=38, p=0.0966
  CRT Median latency, Difference, AQW051 15 mg vs. placebo: −23
[2]; PD analysis set N=54, p=0.3273
  CRT Median latency, Difference, AQW051 15 mg vs. placebo: −9.5
[2]; all patients N=54, p=0.0632
  CRT Percent correct trials, Difference AQW051 15 mg vs. Placebo: 0.5
[3]; AD N = 7
  Flatulence related to study drug, (%): 14.3%
  Patients with AE(s) related to study drug, (%): 14.3%
[3]; MCI N = 20
  Constipation related to study drug, (%): 5.0%
  Dysgraphia related to study drug, (%): 5.0%
  Headache related to study drug, (%): 10.0%
  Increased tendency to bruise related to study drug, (%): 5.0%
  Muscle spasms related to study drug, (%): 5.0%
  Pain in extremity related to study drug, (%): 5.0%
  Patients with AE(s) related to study drug, (%): 15.0%
  Pruritus related to study drug, (%): 5.0%
[3]; N = 27
  Bronchitis AE, (%) of subjects: (3.7) %
  Bronchitis AE, n of subjects: 1
  Chalazion AE, (%) of subjects: (3.7) %
  Chalazion AE, n of subjects: 1
  Constipation AE, (%) of subjects: (3.7) %
  Constipation AE, n of subjects: 1
  Dysgraphia AE, (%) of subjects: (3.7) %
  Dysgraphia AE, n of subjects: 1
  Ear and Labyrinth disorders AEs, (%) of subjects: (3.7) %
  Ear and Labyrinth disorders AEs, n of subjects: 1
  Epistaxis AE, (%) of subjects: (3.7) %
  Epistaxis AE, n of subjects: 1
  Eye disorders AEs, (%) of subjects: (3.7) %
  Eye disorders AEs, n of subjects: 1
  Flatulence AE, (%) of subjects: (3.7) %
  Flatulence AE, n of subjects: 1
  Gastrointestinal disorders AEs, (%) of subjects: (7.4) %
  Gastrointestinal disorders AEs, n of subjects: 2
  Headache AE, (%) of subjects: (7.4) %
  Headache AE, n of subjects: 2
  Hepatic function abnormal AE, (%) of subjects: (3.7) %
  Hepatic function abnormal AE, n of subjects: 1
  Hepatobiliary disorders AEs, (%) of subjects: (3.7) %
  Hepatobiliary disorders AEs, n of subjects: 1
  Increased tendency to bruise AE, (%) of subjects: (3.7) %
  Increased tendency to bruise AE, n of subjects: 1
  Infections and infestations AEs, (%) of subjects: (11.1) %
  Infections and infestations AEs, n of subjects: 3
  Laryngitis AE, (%) of subjects: (3.7) %
  Laryngitis AE, n of subjects: 1
  Muscle spasms AE, (%) of subjects: (3.7) %
  Muscle spasms AE, n of subjects: 1
  Musculoskeletal and connective tissue disorders AEs, (%) of subjects: (7.4) %
  Musculoskeletal and connective tissue disorders AEs, n of subjects: 2
  Nasopharyngitis AE, (%) of subjects: (3.7) %
  Nasopharyngitis AE, n of subjects: 1
  Nervous system disorders AEs, (%) of subjects: (7.4) %
  Nervous system disorders AEs, n of subjects: 2
  Pain in extremity AE, (%) of subjects: (7.4) %
  Pain in extremity AE, n of subjects: 2
  Patients with AEs, (%) of subjects: (40.7) %
  Patients with AEs, n of subjects: 11
  Pruritus AE, (%) of subjects: (3.7) %
  Pruritus AE, n of subjects: 1
  Respiratory, thoracic and mediastinal disorders AEs, (%) of subjects: (3.7) %
  Respiratory, thoracic and mediastinal disorders AEs, n of subjects: 1
  Skin and subcutaneous disorders AEs, (%) of subjects: (7.4) %
  Skin and subcutaneous disorders AEs, n of subjects: 2
  Skin lesion AE, (%) of subjects: (3.7) %
  Skin lesion AE, n of subjects: 1
  Tympanic membrane perforation AE, (%) of subjects: (3.7) %
  Tympanic membrane perforation AE, n of subjects: 1
[3]; Total N = 27
  Constipation related to study drug, (%): 3.7%
  Dysgraphia related to study drug, (%): 3.7%
  Flatulence related to study drug, (%): 3.7%
  Headache related to study drug, (%): 7.4%
  Increased tendency to bruise related to study drug, (%): 3.7%
  Muscle spasms related to study drug, (%): 3.7%
  Pain in extremity related to study drug, (%): 3.7%
  Patients with AE(s) related to study drug, (%): 14.8%
  Pruritus related to study drug, (%): 3.7%
[4]; MCI patient only N=38, p=0.0419
  RVP Mean latency, Difference AQW051 15 mg vs. Placebo: −22
[4]; all patients N=54, p=0.0292
  RVP Mean latency, Difference AQW051 15 mg vs. Placebo: −21.5
[5]; p=0.4244
  PRM Percent correct delayed, Difference, AQW051 15 mg vs. placebo: 0
[5]; p=0.7864
  PRM Mean correct latency delayed, Difference, AQW051 15 mg vs. placebo: 150 ms
[5]; p=0.8090
  PRM Percent correct immediate, Difference, AQW051 15 mg vs. placebo: −4
[5]; p=0.8328
  PRM Mean correct latency immediate, Difference, AQW051 15 mg vs. placebo: 198 ms
[6]; MCI patient only N=38, p=0.0290
  SWM Between errors (6 boxes), Difference AQW051 15 mg vs. Placebo: −2.5
[6]; MCI patient only N=38, p=0.0845
  SWM Between errors, Difference AQW051 15 mg vs. Placebo: −5
[6]; all patients N=54, p=0.0430
  SWM Between errors (6 boxes), Difference AQW051 15 mg vs. Placebo: −2
[6]; all patients N=54, p=0.0701
  SWM Between errors, Difference AQW051 15 mg vs. Placebo: −3.5
[6]; all patients N=54, p=0.0866
  SWM Between errors (4 boxes), Difference AQW051 15 mg vs. Placebo: −0.5
[7]
  GNT Total correct, Difference, AQW051 15 mg vs. placebo: −1.5
